The results in this text go back to patent US20240424019A1, “SHP1 MODIFIED DENDRITIC CELLS AND EXTRACELLULAR VESICLES DERIVED THEREFROM AND ASSOCIATED METHODS” (BOARD OF REGENTS, THE UNIVERSITY OF TEXAS SYSTEM, priority 2021, published 2024).

In experiment [1] the test system is B16-GMCSF melanoma. Put plainly: B16-GMCSF melanoma model. The conditions noted are these: intradermal implants, C57BL/6 mice, 3 mg/kg oral daily, day 19, vs vehicle, n=5. The class given is in vivo, mouse.
Experiment [2] relates to human iPSC-DCs. As to the kind of experiment: Activation of human iPSC-derived DCs by flow cytometry. In kind it is cell-based. The note with it: vitamin E 50 μg/ml or TPI-1 1 μg/ml, 72 h, gated on CD11c+. An excerpt:
FIG. 10A: Representative high magnification photomicrographs (100×, 200×, 400×) illustrating the morphology of colonies and individual cells of fully differentiated iPSC-derived DCs (iPSC-DCs) displaying characteristic DC morphology consisting of protrusions and veils of cytoplasm at the end of the differentiation procedure (day 23) after using the differentiation protocol for the addition and withdrawal of growth factors and cytokines. FIG. 10B: Phenotypic characterization of generated human iPSC-DCs. Representative flow cytometry analysis depicting the expression of DC lineage markers by iPSC-DCs gated on the CD11c+ population. Levels of expression of individual markers are shown as red histograms, while non-specific staining by isotype controls is shown as light blue histograms. FIG. 10C: Phenotypic characterization of human iPSC-DCs after treatment with vitamin E or TPI-1 to inhibit SHP1. Representative flow cytometry analysis (left panel) and quantification (right panel) depicting the expression of indicated activity markers by iPSC-DCs gated on the CD11c+population with the treatment of vehicle, vitamin E (50 μg/ml) or TPI-1 (1 μg/ml) for 72 h.
We explored the feasibility of differentiating populations of primary DCs from iPSCs and characterized the phenotype of iPSC-DC with the pharmacological inhibition of SHP1 by vitamin E or TPI-1. […]
Background: Flow cytometry measures light scatter and fluorescence of single cells or particles in a stream.

Take `O=C1C=CC(=O)C(c2cc(Cl)ccc2Cl)=C1` [TPI-1, 2-(2,5-dichlorophenyl)-2,5-cyclohexadiene-1,4-dione]: the mean tumor volume entry in experiment [1] is on record as “significantly smaller tumor volume”. Moreover, the “expression of DC activation markers on iPSC-DCs” value in experiment [2] is “increased expression of DC activation markers CD40 and CD86”.
